Experimental data taken from US20030013660A1, “Dioxolane analogs for improved inter-cellular delivery” (Shire BioChem Inc., priority 2000, published 2003).
Read-outs that look alike come from different tables or passages of the source.

Tests used:
Test in all cases: 3H-TdR (3H-thymidine) incorporation assay at 72 hr
[1] = test system: MCF-7; format: cell-based, Human; details: Homo sapiens
[2] = test system: SF-268; format: cell-based, Human; details: Homo sapiens
[3] = test system: H-460; format: cell-based, Human; details: Homo sapiens
[4] = test system: CEM/dCK-; format: cell-based; details: for IC50: Homo sapiens, CCRF-CEM; for Factor* (Resistance Factor = Ratio of dCK- on Wild-type CCRF-CEM): ratio of IC50 CEM/dCK- to CCRF-CEM, 24 h
Method: (§1) Table of IC50 Values (μM) for Controls
(§2) Exposition of 24 hr to drug, wash, incubated for another 48 hr (total of 72 hr assay)
(§3) (3H-Thymidine Incorporation Assay)

[5] = test system: CCRF-CEM; format: cell-based; details: Homo sapiens, CCRF-CEM
Method: as §1, §2, §3

[6] = MCF7, read-out: IC50 MCF-7 24 h, 24 h drug exposure, wash, another 48 hr, 3H-TdR incorporation at 72 hr
[7] = SF-268, read-out: IC50 SF-268 24 h, 24 h drug exposure, wash, another 48 hr, 3H-TdR incorporation at 72 hr
[8] = NCI-H460, read-out: IC50 H-460 24 h, 24 h drug exposure, wash, another 48 hr, 3H-TdR incorporation at 72 hr
[9] = read-out: IC50 CEM/dCK- 24 h, 24 h drug exposure, wash, another 48 hr, deoxycytidine kinase-deficient CCRF-CEM
[10] = read-out: IC50 CCRF-CEM 24 h, 24 h drug exposure, wash, another 48 hr, 3H-TdR incorporation at 72 hr
[11] = MCF7, read-out: IC50 MCF-7 24 h
[12] = SF-268, read-out: IC50 SF-268 24 h
[13] = NCI-H460, read-out: IC50 H-460 24 h

| SMILES | IC50 [1, 6] [µM] | IC50 [2, 7] [µM] | IC50 [3, 8] [µM] | IC50 [4, 9] [µM] | Factor* (Resistance Factor = Ratio of dCK- on Wild-type CCRF-CEM) [4] | IC50 [5, 10] [µM] | IC50 [1, 11] [µM] | IC50 [2, 12] [µM] | IC50 [3, 13] [µM] | IC50 ([4]; read-out: IC50 CEM/dCK- 24 h) [µM] | IC50 ([5]; read-out: IC50 CCRF-CEM 24 h) [µM] |
| --- | --- | --- | --- | --- | --- | --- | --- | --- | --- | --- | --- |
| CCOC(C)OC[C@H]1OC[C@@H](n2ccc(N)nc2=O)O1 (stereo in doubt) [Compound 91, 4-AMINO-1-[2-(1-ETHOXY- ETHOXYMETHYL)- [1,3]DIOXOLAN-4-YL]-1H- PYRIMIDIN-2-ONE] | 1.8 | 5.5 | 0.63 | > 100 | 36 | 2.8 | – | – | – | – | – |
| CC(=O)OCC1OC2OC(C)(OC[C@H]3OC[C@@H](n4ccc(NC(=O)OCc5ccccc5)nc4=O)O3)OC2C(OC(C)=O)C1OC(C)=O (stereo in doubt) [Compound 148, Acetic acid 6-acetoxy-5-acetoxymethyl-2-[4-(4-benzyloxycarbonylamino-2-oxo-2H-pyrimidin-1-yl)-[1,3]dioxolan-2-ylmethoxy]-2-methyl-tetrahydro-[1,3]dioxolo[4,5-b]pyran-7-yl ester] | 6.3 | 9.9 | 36 | 24 | 4 | 6.3 | – | – | – | – | – |
| CC(=O)OCC1OC2OC(C)(OC[C@H]3OC[C@@H](n4ccc(N)nc4=O)O3)OC2C(OC(C)=O)C1OC(C)=O (stereo in doubt) [Compound 151, Acetic acid 6-acetoxy-5-acetoxymethyl-2-[4-(4-amino-2-oxo-2H-pyrimidin-1-yl)-[1,3]dioxolan-2-ylmethoxy]-2-methyl-tetrahydro-[1,3]dioxolo [4,5-b]pyran-7-yl ester] | 8.3 | 4.4 | 9.7 | > 100 | >169 | 0.59 | – | – | – | – | – |
| CC(CCCCN(Cc1ccccc1)C(=O)OC(C)(C)C)C(=O)Nc1ccn([C@@H]2CO[C@H](CO)O2)c(=O)n1 (stereo in doubt) [Compound 158, Benzyl-{5-[1-(2-hydroxymethyl-[1,3]dioxolan-4-yl)-2-oxo-1,2-dihydro-pyrimidin-4-ylcarbamoyl]-hexyl}-carbamic acid tert-butyl ester] | 0.04 | 3.7 | 0.63 | 58 | 617 | 0.094 | – | – | – | – | – |
| COC(OC)OC[C@H]1OC[C@@H](n2ccc(N)nc2=O)O1 [Compound 38, 4-AMINO-1-(2- DIMETHOXYMETHOXYMETHYL- [1,3]DIOXOLAN-4-YL)-1H- PYRIMIDIN-2-ONE] | 1 | 0.9 | 0.34 | > 100 | 909 | 0.11 | – | – | – | – | – |
| Nc1ccn([C@@H]2CO[C@H](COC3OCCO3)O2)c(=O)n1 [Compound 40, 4-AMINO-1-[2- ([1,3]DIOXOLAN-2- YLOXYMETHYL)- [1,3]DIOXOLAN-4-YL]-1H- PYRIMIDIN-2-ONE] | 0.07 | 0.9 | 0.32 | > 100 | 1,123 | 0.089 | – | – | – | – | – |
| O=C(Nc1ccn([C@@H]2CO[C@H](COC(=O)Oc3ccccc3)O2)c(=O)n1)Oc1ccccc1 [Compound 43] | – | – | – | – | 1,000,000 | – | 0.0041 | 0.029 | 0.01 | > 100 | < 0.0001 |
| O=C(Nc1ccn([C@@H]2CO[C@H](CO)O2)c(=O)n1)Oc1ccccc1 [Compound 44, [1-(2-HYDROXYMETHYL- [1,3]DIOXOLAN-4-YL)-2- OXO-1,2-DIHYDRO- […]-4-YL]- CARBAMIC ACID PHENYL ESTER] | – | – | – | – | 1,300 | – | 0.97 | 0.89 | 0.37 | > 100 | 0.077 |
| CCOC(=O)Nc1ccn([C@@H]2CO[C@H](CO)O2)c(=O)n1 [Compound 45, [1-(2-HYDROXYMETHYL- [1,3]DIOXOLAN-4-YL)-2- OXO-1,2-DIHYDRO- PYRIMIDIN-4-YL]- CARBAMIC ACID ETHYL ESTER] | 2.7 | 9 | 3.2 | > 100 | 63 | 1.6 | – | – | – | – | – |
| CCOC(=O)OC[C@H]1OC[C@@H](n2ccc(N)nc2=O)O1 [Compound 46, CARBONIC ACID 4-(4- AMINO-2-OXO-2H- PYRIMIDIN-1-YL)- [1,3]DIOXOLAN-2- YLMETHYL ESTER ETHYL ESTER] | 0.16 | 0.56 | 0.086 | > 100 | 1,667 | 0.06 | – | – | – | – | – |
| CCOC(=O)Nc1ccn([C@@H]2CO[C@H](COC(=O)OCC)O2)c(=O)n1 [Compound 47, CARBONIC ACID 4-(4- ETHOXYCARBONYLAMINO-2- OXO-2H-PYRIMIDIN-1-YL)- [1,3]DIOXOLAN-2- YLMETHYL ESTER ETHYL ESTER] | 2.4 | 38 | 1.8 | > 100 | 34 | 2.9 | – | – | – | – | – |
| CC(C)(C)C(=O)Nc1ccn([C@@H]2CO[C@H](CO)O2)c(=O)n1 [Compound 49, N-[1-(2-HYDROXYMETHYL- [1,3]DIOXOLAN-4-YL)- CYTOSYL]-2,2-DIMETHYL- PROPIONAMIDE] | 8.8 | 7.1 | 4.5 | > 100 | 175 | 0.57 | – | – | – | – | – |
| O=C(Nc1ccn([C@@H]2CO[C@H](CO)O2)c(=O)n1)OCc1ccccc1 [Compound 50, [1-(2-HYDROXYMETHYL- [1,3]DIOXOLAN-4-YL)- CYTOSYL]-CARBAMIC ACID BENZYL ESTER] | 0.82 | 1.3 | 1.2 | > 100 | 588 | 0.17 | – | – | – | – | – |
| O=C(Nc1ccn([C@@H]2CO[C@H](COC(=O)OCc3ccccc3)O2)c(=O)n1)OCc1ccccc1 [Compound 51, 4-(4- BENZYLOXYCARBONYLAMINOC YTOSYL)-[1,3]DIOXOLAN- 2-YLMETHYL BENZYL CARBONATE] | 0.57 | 0.86 | 0.83 | 47 | 1,958 | 0.024 | – | – | – | – | – |
| Nc1ccn([C@@H]2CO[C@H](COC(=O)Cc3ccccc3)O2)c(=O)n1 [Compound 52, (2S,4S)-2- PHENYLACETOXYMETHYL-4- CYTOSIN-1′-YL-1,3- DIOXOLANE] | – | – | – | – | 400 | – | 0.088 | 0.032 | 0.0068 | 0.48 | 0.0012 |
| COC(C)(C)OC[C@H]1OC[C@@H](n2ccc(N)nc2=O)O1 [Compound 54, 4-AMINO-1-[2-(1- METHOXY-1-METHYL- ETHOXYMETHYL)- [1,3]DIOXOLAN-4-YL]-1H- PYRIMIDIN-2-ONE] | 0.5 | 0.7 | 0.17 | 65 | 542 | 0.12 | – | – | – | – | – |
| CCCCCCCC(=O)Nc1ccn([C@@H]2CO[C@H](CO)O2)c(=O)n1 [Compound 55, OCTANOIC ACID [1-(2- HYDROXYMETHYL- [1,3]DIOXOLAN-4-YL)-2- OXO-1, 2-DIHYDRO- PYRIMIDIN-4-YL]-AMIDE] | 0.0078 | 0.047 | 0.029 | 64 | 5,333 | 0.012 | – | – | – | – | – |
| CC(C)(C)C(=O)OCOC[C@H]1OC[C@@H](n2ccc(N)nc2=O)O1 [Compound 58, 2,2-DIMETHYL-PROPIONIC ACID 4-(4-AMINO-2-OXO- 2H-PYRIMIDIN-1-YL)- [1,3]DIOXOLAN-2- YLMETHOXYMETHYL ESTER] | 0.016 | 0.13 | 0.012 | 38 | 2,714 | 0.014 | – | – | – | – | – |
| CCCCOC(=O)Nc1ccn([C@@H]2CO[C@H](CO)O2)c(=O)n1 [Compound 59, [1-(2-HYDROXYMETHYL- [1,3]DIOXOLAN-4-YL)-2- OXO-1,2-DIHYDRO- PYRIMIDIN-4-YL]- CARBAMIC ACID BUTYL ESTER] | 0.19 | 0.69 | 1.4 | > 100 | 185 | 0.54 | – | – | – | – | – |
| COCCOCOC[C@H]1OC[C@@H](n2ccc(N)nc2=O)O1 [Compound 62, 4-AMINO-1-[2-(2- METHOXY- ETHOXYMETHOXYMETHYL)- [1,3]DIOXOLAN-4-YL]-1H- PYRIMIDIN-2-ONE] | 1.7 | 4.3 | 0.89 | > 100 | 288 | 0.35 | – | – | – | – | – |
| COc1ccc(OC(=O)Nc2ccn([C@@H]3CO[C@H](COC(=O)Oc4ccc(OC)cc4)O3)c(=O)n2)cc1 [Compound 63] | – | – | – | – | 2,778 | – | 0.37 | 0.076 | 0.11 | > 100 | 0.036 |
